Assays:
[1] = test system: S. aureus; assay: MBC determination; format: cell-based, S. aureus (ATCC 25923); settings: Staphylococcus aureus; Table 5
From the text: (§1) • Menthol, Guangdong Huaqingyuan Biotechnology Co., Ltd. • Thymol, Guangdong Huaqingyuan Biotechnology Co., Ltd. • Bromoisobutyryl bromide (BiBB), Aldrich • CuBr, Aldrich • N,N,N′,N″,N″-pentamethyldiethylenetriamine (PMDETA), Aldrich • 2-(N,N-dimethylamino)ethyl methacrylate (DMAEMA), Aldrich • Gram-positive 2 bacteria (S. aureus, ATCC 25923), China Center of Industrial Culture, commercially available from Guangdong Huankai Microbial Sci.&Tech. Co., Ltd., Guangdong, China • methicillin-resistant Staphylococcus aureus (ATCC 43300), China Center of Industrial Culture, commercially available from Guangdong Huankai Microbial Sci.&Tech. Co., Ltd., Guangdong, China • Gram-negative bacteria (E. coli, ATCC 43894), China Center of Industrial Culture, commercially available from Guangdong Huankai Microbial Sci.&Tech. Co., Ltd., Guangdong, China.
(§2) The MBC was defined as the lowest concentration of an antibacterial agent that kills bacteria in the planktonic culture. MBC of antibacterial polymers and control were determined against S. aureus and E. coli by the reported method in publication “Antibacterial and Bacterially Antiadhesive Cotton Fabrics Coated by Cationic Fluorinated Polymers. ACS Appl Mater Interfaces 2018, 10 (7), 6124-6136.”

[2] = test system: MRSA; assay: MIC determination by serial dilution in LB broth; format: cell-based, methicillin-resistant Staphylococcus aureus (ATCC 43300); settings: Staphylococcus aureus, read-out: MIC MRSA
From the text: as §1
MIC (minimum inhibitory concentration) was used as an effective qualitative method of antibacterial ability assessment. MIC of antibacterial polymers were determined against S. aureus and E. coli by a serial dilution method. Bacteria LB agar plates were prepared from glycerol stock. Bacteria were inoculated with LB broth in an inoculation shaker at 200 rpm and 37° C., overnight. […] MIC was determined with no visible growth at 600 nm by spectrophotometer. […]

[3] = test system: E. coli; assay: microbe, parasite or virus in culture; format: cell-based, E. coli (ATCC 43894); settings: Escherichia coli, 24 h, read-out: MIC E. coli
From the text: as §1
(§3) MIC (minimum inhibitory concentration) was used as an effective qualitative method of antibacterial ability assessment. MIC of antibacterial polymers were determined against S. aureus and E. coli by a serial dilution method. Bacteria LB agar plates were prepared from glycerol stock. Bacteria were inoculated with LB broth in an inoculation shaker at 200 rpm and 37° C., overnight.

[4] = test system: MRSA; assay: MBC determination; format: cell-based, methicillin-resistant Staphylococcus aureus (ATCC 43300); settings: Staphylococcus aureus, read-out: MBC MRSA
From the text: as §1, §2

[5] = test system: S. aureus; assay: MIC determination by serial dilution in LB broth; format: cell-based, S. aureus (ATCC 25923); settings: Staphylococcus aureus, Table 5, 24 h, 37° C.
From the text: as §1, §3

[6] = test system: E. coli; assay: MBC determination; format: cell-based, E. coli (ATCC 43894); settings: Escherichia coli, read-out: MBC E. coli
From the text: as §1, §2

Cc1ccc(C(C)C)c(O)c1 [Thymol]
250 µg/mL: MBC [1] | MIC [2] | MIC [3] | MBC [4] | MIC [5] | MBC [6]

Source: patent US20250268248A1 (priority 2022, published 2025)
